Laboratory results reported in US20110189194A1, “USE OF CD95 INHIBITORS FOR THE TREATMENT OF INFLAMMATORY DISORDERS” (Deutsches Krebsforschungszentrum Stiftung des offentlichen …, priority 2008, published 2011).
Entries after “also recorded” stand apart in the source; their conditions may differ.

Tests used:
Syk [1] = assay: Western blot, CD95L-induced phosphorylation of Syk in dHL-60; format: cell-based, human; conditions: CD95L 20 and 40 ng/ml
Protocol: (§1) Protein extraction and immunoblotting was performed as previously described. Membranes were probed with the following antibodies: phosphorylated AKT (p-Ser473-AKT, 1:1000, Cell Signaling #9271), total AKT (t-AKT, 1:1000, Cell Signaling #9272), phosphorylated Src (p-Src Tyr 416, 1:1000, Cell Signaling #2101), total Src (1:1000, Cell Signaling #2108), phosphorylated Syk (pSyk Tyr 319/352, 1:1000, Cell Signaling #2701), total Syk (1:1000, Cell Signaling #2712).

Syk [2] = assay: Western blot, CD95L-induced phosphorylation of Syk in primary macrophages; format: cell-based, mouse
Protocol: as §1

[3] = system: bone marrow derived neutrophils; assay: Two chamber in vitro migration assay, neutrophils; format: cell-based, mouse
Protocol: (§2) Migration of bone marrow derived neutrophils or macrophages was assessed in vitro in a two chamber migration assay. Transwell inserts [3 μm (BD #353096) or 8 μm (BD #353097) pore size for neutrophils or macrophages respectively] were coated with matrigel (50 μg/ml; BD #354234). 5×10^5 neutrophils or macrophages were plated in 500 μl medium onto the upper chamber. Cells were left untreated or treated with CD95L-T4 by adding 10, 20 and 40 ng/ml to the upper chamber. The number of migrated cells was counted 3 hours for neutrophils and 24 hours for macrophages after treatment.
The role of metalloproteinases on neutrophil recruitment was investigated by using selective inhibitors of MMP-2/9. Neutrophils were pre-incubated with MMP-2/9 inhibitor (50 μM; Calbiochem #444251) 30 minutes prior to CD95L-T4 treatment and migrating cells were calculated.
Migration of bone marrow derived neutrophils or macrophages was assessed in vitro in a two chamber migration assay. Transwell inserts [3 μm (BD #353096) or 8 μm (BD #353097) pore size for neutrophils or macrophages, respectively] were coated with matrigel (50 μg/ml; BD #354234). 5×10^5 neutrophils, 1×10^6 dHL60 or 2×10^5 macrophages were plated in 500 μl medium onto the upper chamber. Cells were left untreated or treated with CD95L-T4 (engineered Mus musculus CD95L (Kleber et al., 2008)) by adding 10, 20 and 40 ng/ml to the upper chamber. The number of migrated cells was counted 3 h for neutrophils, 4 h for dHL-60 and 24 h for macrophages after treatment by using a hemocytometer. […] Data of the migration assays are representative of at least 4 independent experiments with 6 technical replicates per condition.
(§3) The role of metalloproteinases on neutrophil and macrophage recruitment was investigated by using selective inhibitors of MMP-2/9. Neutrophils, dHL-60 and macrophages were pre-incubated with MMP-2/9 inhibitors (50 μM; Calbiochem #444251) 30 minutes prior to CD95L-T4 treatment and the number of migrated cells was counted at the times indicated previously.

dHL-60 cells = assay: Two chamber in vitro migration assay, dHL-60; format: cell-based, human
Protocol: The human myeloid HL-60 cell line (ACC 3) was kindly provided by Dr. Lucie Darner. PMN-like differentiation of HL-60 cells and the electroporation protocol was described previously. Briefly, HL-60 cells were allowed to differentiate in presence of 1.3% DMSO for 6 days before used for protein analysis. Electroporation of dHL-60 cells was performed at day 4. For electroporation, a 400 μL aliquot of dHL-60 (1×10^7 cells/mL) in RPMI was transferred to a Gene Pulser cuvette with an 0.4-cm electrode (Bio-Rad, Hercules, Calif.) and mixed with […] Syk siRNA ON-TARGETplus SMARTpool siRNA or non-targeting SMARTpool siRNA. Cells were incubated for 10 minutes at room temperature (RT) and subjected to an electroporation pulse of 310 V and 1175 μFF (Gene Pulser Biorad, Munich, Germany). 48 h to 72 h after electroporation, Syk knockdown was assessed by Western Blot. At the same time, cells were stimulated with CD95L-T4 and analysed after 4 h for migration.
Migration of bone marrow derived neutrophils or macrophages was assessed in vitro in a two chamber migration assay. Transwell inserts [3 μm (BD #353096) or 8 μm (BD #353097) pore size for neutrophils or macrophages, respectively] were coated with matrigel (50 μg/ml; BD #354234). 5×10^5 neutrophils, 1×10^6 dHL60 or 2×10^5 macrophages were plated in 500 μl medium onto the upper chamber. Cells were left untreated or treated with CD95L-T4 (engineered Mus musculus CD95L (Kleber et al., 2008)) by adding 10, 20 and 40 ng/ml to the upper chamber. The number of migrated cells was counted 3 h for neutrophils, 4 h for dHL-60 and 24 h for macrophages after treatment by using a hemocytometer. […]
as §3

[4] = system: bone marrow derived macrophages; assay: Two chamber in vitro migration assay, macrophages; format: cell-based, mouse
Protocol: as §2
Transfection of primary macrophages was performed at day 8 in culture with lipofectamine (Invitrogen #11668019) according to the manufacturer's protocol. Briefly, macrophages were transfected with mouse […] Syk siRNA ON-TARGETplus SMARTpool siRNA or a non-targeting SMARTpool siRNA using Lipofectamine 2000. 48 h later Syk knockdown was assessed by Western Blot. At the same time, cells were stimulated with CD95L-T4 and analysed after 24 h for migration, MMP-activity or Western blots.
Migration of bone marrow derived neutrophils or macrophages was assessed in vitro in a two chamber migration assay. […] The number of migrated cells was counted 3 h for neutrophils, 4 h for dHL-60 and 24 h for macrophages after treatment by using a hemocytometer. […]

| SMILES | CD95L-induced phosphorylation of Syk in dHL-60 (Syk [1]) | CD95L-induced phosphorylation of Syk in primary macrophages (Syk [2]) | CD95L-T4 induced migration of neutrophils (in words) [3] | migration after MMP-2/9 blockade, neutrophils, cell count ± SEM ([3]; CD95L-T4 10 ng/ml, with or without inhibitor 50 μM) | migration after MMP-2/9 blockade, neutrophils, cell count ± SEM ([3]; Control (no CD95L-T4), inhibitor 50 μM, 30 min pre-incubation) | CD95L-T4 induced migration of dHL-60 (in words) (dHL-60 cells) | migration after MMP-2/9 blockade, dHL-60, cell count ± SEM (dHL-60 cells; CD95L-T4 40 ng/ml, with or without inhibitor 50 μM) | migration after MMP-2/9 blockade, dHL-60, cell count ± SEM (dHL-60 cells; Control (no CD95L-T4), inhibitor 50 μM) | CD95L-T4 induced migration of macrophages (in words) [4] | migration after MMP-2/9 blockade, macrophages, cell count ± SEM ([4]; CD95L-T4 20 ng/ml, with or without inhibitor 50 μM) |
| --- | --- | --- | --- | --- | --- | --- | --- | --- | --- | --- |
| CC(C)(C)n1nc(-c2ccc(Cl)cc2)c2c(N)ncnc21 [PP2] | blocked; also recorded: inhibited | blocked; also recorded: inhibited |  |  |  |  |  |  |  |  |
| O=C(O)[C@@H](Cc1ccccc1)NS(=O)(=O)c1ccc(-c2ccccc2)cc1 [MMP-2/9 inhibitor] |  |  | blocked | 10 ng/ml: 724.69 ± 150.01 | Control: 713.00 ± 161.89 | blocked | 40 ng/ml: 683.09 ± 170.89 | Control: 658.09 ± 137.65 | blocked | 323.80 ± 100.20 |
